Source: PMC9516332 (Frontiers in Oncology, 2022)
Read-outs that look alike come from different tables or passages of the source.

Columns and labels:
Experiment in all cases: Kinase panel profiling at 1 µmol/L (MSA or IMAP), percentage inhibition
Assay type in all cases: biochemical
[1] = biological target: panel of 255 wild-type kinases (Homo sapiens, UniProt P31749); details: read-out: %-inhibition AKT1
[2] = biological target: panel of 255 wild-type kinases (Homo sapiens, UniProt P51451); details: for inhibition at 1 µM: read-out: %-inhibition BLK
[3] = biological target: T1, panel of 255 wild-type kinases (Homo sapiens, UniProt Q96PY6); details: read-out: %-inhibition, NEK1
T1 sequence (Q96PY6 1-1258): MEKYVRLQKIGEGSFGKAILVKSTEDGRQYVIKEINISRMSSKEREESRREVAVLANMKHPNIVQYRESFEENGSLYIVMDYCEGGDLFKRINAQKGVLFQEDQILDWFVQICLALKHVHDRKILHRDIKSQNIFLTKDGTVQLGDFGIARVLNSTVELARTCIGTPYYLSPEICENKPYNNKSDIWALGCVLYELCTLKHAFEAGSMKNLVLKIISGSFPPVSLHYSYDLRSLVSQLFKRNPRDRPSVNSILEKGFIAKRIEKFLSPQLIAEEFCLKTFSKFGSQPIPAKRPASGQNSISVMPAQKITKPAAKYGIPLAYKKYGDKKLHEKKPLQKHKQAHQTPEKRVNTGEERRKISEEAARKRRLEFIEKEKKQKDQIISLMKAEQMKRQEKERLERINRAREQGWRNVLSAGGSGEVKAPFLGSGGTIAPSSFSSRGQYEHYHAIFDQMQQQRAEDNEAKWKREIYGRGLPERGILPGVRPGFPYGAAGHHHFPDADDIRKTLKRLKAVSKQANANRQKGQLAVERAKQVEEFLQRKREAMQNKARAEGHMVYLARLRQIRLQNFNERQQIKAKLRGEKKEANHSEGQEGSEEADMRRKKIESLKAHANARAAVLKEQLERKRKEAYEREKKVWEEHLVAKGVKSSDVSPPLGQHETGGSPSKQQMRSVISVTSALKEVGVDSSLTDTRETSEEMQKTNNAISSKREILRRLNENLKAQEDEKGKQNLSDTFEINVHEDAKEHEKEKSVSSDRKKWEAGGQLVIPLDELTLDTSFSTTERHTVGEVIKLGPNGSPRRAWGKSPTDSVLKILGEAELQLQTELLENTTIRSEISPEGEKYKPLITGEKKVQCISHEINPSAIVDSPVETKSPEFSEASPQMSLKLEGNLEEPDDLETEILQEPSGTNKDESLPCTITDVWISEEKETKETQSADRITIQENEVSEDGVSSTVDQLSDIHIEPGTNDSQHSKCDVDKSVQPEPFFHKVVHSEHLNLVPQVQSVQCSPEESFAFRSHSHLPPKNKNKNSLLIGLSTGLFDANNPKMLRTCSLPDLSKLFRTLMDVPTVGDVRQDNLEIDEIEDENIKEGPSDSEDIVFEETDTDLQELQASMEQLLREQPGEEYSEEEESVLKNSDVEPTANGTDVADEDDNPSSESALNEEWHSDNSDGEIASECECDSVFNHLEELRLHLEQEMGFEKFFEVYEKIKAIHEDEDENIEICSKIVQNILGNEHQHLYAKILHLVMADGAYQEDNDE

[4] = biological target: panel of 255 wild-type kinases (Homo sapiens, UniProt Q13882); details: read-out: %-inhibition BRK
[5] = biological target: T2, panel of 255 wild-type kinases (Homo sapiens, UniProt Q12851); details: read-out: %-inhibition at 1 µmol/L, MAP4K2
T2 sequence (Q12851 1-820): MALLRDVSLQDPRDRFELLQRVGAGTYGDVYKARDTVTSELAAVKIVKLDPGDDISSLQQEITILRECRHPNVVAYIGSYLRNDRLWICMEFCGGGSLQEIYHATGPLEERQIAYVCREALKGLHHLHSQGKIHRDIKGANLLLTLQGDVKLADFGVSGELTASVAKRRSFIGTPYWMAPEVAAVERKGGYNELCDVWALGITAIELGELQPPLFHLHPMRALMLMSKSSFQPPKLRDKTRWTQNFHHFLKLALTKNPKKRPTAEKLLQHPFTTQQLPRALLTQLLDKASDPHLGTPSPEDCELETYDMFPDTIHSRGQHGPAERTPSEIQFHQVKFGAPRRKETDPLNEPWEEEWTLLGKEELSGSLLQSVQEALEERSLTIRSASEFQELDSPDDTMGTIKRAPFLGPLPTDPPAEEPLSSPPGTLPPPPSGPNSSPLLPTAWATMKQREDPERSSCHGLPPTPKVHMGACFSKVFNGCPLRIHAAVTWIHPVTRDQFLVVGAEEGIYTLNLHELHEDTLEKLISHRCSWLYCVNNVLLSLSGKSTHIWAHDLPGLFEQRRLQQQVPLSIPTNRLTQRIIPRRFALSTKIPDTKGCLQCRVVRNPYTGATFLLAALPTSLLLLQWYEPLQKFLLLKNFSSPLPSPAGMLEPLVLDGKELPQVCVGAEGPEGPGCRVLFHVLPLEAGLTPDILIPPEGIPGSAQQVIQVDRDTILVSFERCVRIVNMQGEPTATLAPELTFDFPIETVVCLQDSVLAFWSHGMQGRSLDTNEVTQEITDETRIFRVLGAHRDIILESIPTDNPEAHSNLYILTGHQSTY

[6] = AKT1 kinase assay, 1 µmol/L single concentration
[7] = BLK kinase assay, 1 µmol/L single concentration
[8] = NEK1, 1 µmol/L single concentration
[9] = BRK kinase assay, 1 µmol/L single concentration
[10] = kinase MAP4K2, 1 µmol/L single concentration

SMILES	inhibition at 1 µM [1, 6] [%]	inhibition at 1 µM [2, 7] [%]	inhibition at 1 µM [3, 8] [%]	inhibition at 1 µM [4, 9] [%]	inhibition at 1 µM [5, 10] [%]	%-inhibition BLK [2, 7] [%]	inhibition at 1 µM [1] [%]	inhibition at 1 µM [2] [%]	inhibition at 1 µM [3] [%]	inhibition at 1 µM [4] [%]	inhibition at 1 µM [5] [%]
CO[C@]1(C(=O)N[C@@H](C)c2ccc(-n3cc(F)cn3)nc2)CC[C@H](c2nc(C)cc(Nc3cc(C)[nH]n3)n2)CC1 [pralsetinib]	-12	84	-5	49	3.5						
COc1cc2ncnc(Nc3ccc(F)c(Cl)c3)c2cc1NC(=O)/C=C/CN1CCCCC1 [dacomitinib]	-22	77	0.762	53	-2.38						
CCn1c(=O)c(-c2cc(NC(=O)Nc3ccccc3)c(F)cc2Br)cc2cnc(NC)cc21 [ripretinib]	-6	26	-1.3	36	44						
Cc1nc(NC(=O)N2CCC[C@H]2C(N)=O)sc1-c1ccnc(C(C)(C)C(F)(F)F)c1 [alpelisib]	-6.35	-13	-0.542	2.75	5.56						
C=CC(=O)N1CCC([C@@H]2CCNc3c(C(N)=O)c(-c4ccc(Oc5ccccc5)cc4)nn32)CC1 [zanubrutinib]	-13		-4	99	-2.68	98					
O=C(Nc1cnn2ccc(N3CCC[C@@H]3c3cc(F)ccc3F)nc12)N1CC[C@H](O)C1 [larotrectinib]	-15	-4	-2.72	4.64	-2						
Cc1cc(Nc2ncnc3ccc(NC4=NC(C)(C)CO4)cc23)ccc1Oc1ccn2ncnc2c1 [tucatinib]	-9	2.27	1.77	8	6						
FC(F)(F)c1ccc(CNc2ccc(Cc3c[nH]c4ncc(Cl)cc34)cn2)cn1 [pexidartinib]	-20	18	-1.38	15	31						
Cn1cnc2c(F)c(Nc3ccc(Br)cc3F)c(C(=O)NOCCO)cc21 [binimetinib]	-5	10	-1.21	1.08	-1.27						
CN1CCN(c2ccc(C(=O)Nc3n[nH]c4ccc(Cc5cc(F)cc(F)c5)cc34)c(NC3CCOCC3)c2)CC1 [entrectinib]	-9	86	-3.78	88	85						
COC(=O)N[C@@H](C)CNc1nccc(-c2cn(C(C)C)nc2-c2cc(Cl)cc(NS(C)(=O)=O)c2F)n1 [encorafenib]	-2	10	2.84	25	4						
C[C@H]1Oc2cc(cnc2N)-c2c(nn(C)c2C#N)CN(C)C(=O)c2ccc(F)cc21 [lorlatinib]	-4	-6	0.741	63	20						
CCN1CCN(c2ccc(Nc3cc(N(C)C(=O)Nc4c(Cl)c(OC)cc(OC)c4Cl)ncn3)cc2)CC1 [infigratinib]	-12	21	-5	5.46	23						
COc1ccc(CN2C3CC2CN(c2ccc(-c4cc(OCC(C)(C)O)cn5ncc(C#N)c45)cn2)C3)cn1 [selpercatinib]	-10	76	-0.568	19	4.23						
Cn1cnc2c(F)c(Nc3ccc(Br)cc3Cl)c(C(=O)NOCCO)cc21 [selumetinib]	-11	-6	-5	6	2.67						
CCc1nc(C(N)=O)c(Nc2ccc(N3CCC(N4CCN(C)CC4)CC3)c(OC)c2)nc1NC1CCOCC1 [gilteritinib]	-22	94	5.59	98	99						
CCN1C(=O)N(c2c(F)c(OC)cc(OC)c2F)Cc2cnc3[nH]c(CN4CCOCC4)cc3c21 [pemigatinib]	-12	27	10	11	8						
Cn1cc(-c2cc3c(N4CCN(c5ncc([C@@](C)(N)c6ccc(F)cc6)cn5)CC4)ncnn3c2)cn1 [avapritinib]	-9	50	56	0.682	14						
CNC(=O)c1ccc(-c2cnc3ncc(Cc4ccc5ncccc5c4)n3n2)cc1F [capmatinib]							-10	-4	-8	-0.67	-0.216
C[C@H](Nc1ncnc2nc[nH]c12)c1cc2cccc(Cl)c2c(=O)n1-c1ccccc1 [duvelisib]	-6	-12	-3.74	4.54	2.36						
